{"source": "patent US20070060636A1", "about": "“High enantiomeric purity dexanabinol for pharmaceutical compositions” (priority 2002, published 2007)", "key": {"[1]": {"test_system": "inflammatory bowel disease (IBD) model", "assay": "IBD induced by rectal 5% acetic acid solution", "assay_type": "in vivo, Sprague Dawley male rats", "experimental": "The pharmacological activity of dexanabinol of high enantiomeric purity in enema formulation was also tested and compared to oral and i.p. formulations, wherein oral delivery was performed using a hard gelatin capsule and i.p. delivery was performed using the CREMOPHOR EL®:ethanol formulation. IBD was induced in Sprague Dawley male rats, by rectal administration of a 5% acetic acid solution. The rectum was then washed with saline and animals were clinically observed (body weight, stool consistency and blood in stool) daily for 7 days. On the eighth day, the animals were sacrificed, their colon opened and gross pathology lesions were recorded (hyperemia, edema, number of erosions, ulcers, perforations and adhesions). Animals, at least six per group, were treated rectally (by enema) with either dexanabinol (5, 10, 20 or 40 mg/kg/day) or its vehicle or by oral gavage (20, 40, or 80 mg/kg/day or vehicle). Administration of acetic acid caused a decrease in body weight (up to 20%), changes in stool consistency (diarrhea) and appearance of blood in the stool 24 hours later. Spontaneous clinical healing was detected as animals regained weight and blood was no more evident in the stool. In the gross pathology scale, rectal dexanabinol 10 mg/kg had the best effect (more than 50% reduction of score) compared to its vehicle (p<0.05). […] The rectal dexanabinol dose of 10 mg/kg was pharmacologically equivalent to 20 mg/kg i.p. dose and 80 mg/kg oral dose."}, "[2]": {"test_system": "intra-ocular pressure (IOP)", "assay": "IOP lowering after topical administration in normotensive rabbits", "assay_type": "in vivo, New Zealand White albino rabbits", "experimental": "New Zealand White albino rabbits weighing 2-2.5 kg were acclimatized in our animal facility for at least a week prior to IOP measurements. Drug, saline and blank-vehicle groups (n=8-12 animals per group) were included. In most experiments, 50 μl drops were applied at 09:00 and measurements were taken 1 hour, 3, 5, and 7 hours later. Baseline IOP was individualized for each animal and time point prior to drug testing. IOP was measured by a Digilab Pneumatonometer, Model 30R. ΔIOP was calculated by subtracting the baseline IOP from IOP value measured after drug application at a corresponding time point. Maximal ΔIOP and area under the ΔIOP×hours curve (AUC) were calculated and averaged for each group. Data of IOP, AUC, blood pressure and toxicity were analyzed by the Wilcoxon-Rank test."}, "CB1 mediated activity": {"test_system": "CB1 mediated activity", "assay": "mice tetrad assay (suppression of spontaneous activity, hypothermia, catalepsy)", "assay_type": "in vivo", "settings": "50 mg/kg intravenously, dexanabinol according to the invention", "excerpt": "The prepared sample was further tested for suppression of spontaneous activity, hypothermia, and catalepsy measured in the mice tetrad assay, and clearly produced adverse effects. […] Finally, it caused significant catalepsy, with the animals remaining immobile on the beam for almost 30 seconds.\nPsychoactive cannabinoids have a variety of pharmacological effects that are evoked through interactions with the CB1 receptors predominantly expressed in the brain. The central nervous system effects that occur after in vivo exposure to HU-210 include euphoria, hypokinesia, hypothermia, anti-nociception, and catalepsy. Hypokinesia, hypothermia, anti-nociception, and catalepsy are the activities that form the basis of the “Tetrad assay” of CB1 mediated activity. […] The threshold for psychomimetic effects of oral THC in humans is in the range of 10-15 mg THC in an adult, i.e from about 0.16 to about 0.25 mg THC/kg body weight for adults of approximately 60 kg (“Cannabis and Cannabinoids, pharmacology, toxicology and therapeutic potential” edited by Grotenhermen and Russo, the Haworth Integrative Healing Press; Chapter 31 pp 345 and 351).\nDexanabinol according to the present invention was tested for suppression of spontaneous activity, hypothermia, and catalepsy in the mice tetrad assay."}, "[3]": {"assay": "international clinical trials, safety", "assay_type": "in vivo, human", "settings": "more than 500 patients exposed, dexanabinol CREMOPHOR EL:ethanol product", "excerpt": "A Safety Committee appointed to monitor patient data to ensure patient safety analyzed patients' data after the enrollment and in all cases the safety committee found the drug safe."}, "[4]": {"assay": "toxicology studies, single and/or multiple i.v. doses", "assay_type": "in vivo, rats, rabbits, and monkeys", "experimental": "In order to support the i.v. testing of dexanabinol of high enantiomeric purity in humans, a series of acute single-dose and sub-chronic multiple dose toxicology studies were conducted to establish the safety profile of the compound in rats, rabbits, and monkeys. The 2-week and 4-week multidose studies included complete clinical and morphological evaluations. In vitro/in vivo mutagenicity studies and special toxicological evaluations have also been carried out to evaluate the safety profile of dexanabinol. The toxicology studies employed doses that were multiples of the proposed clinical doses."}}, "data": [{"smiles": "CCCCCCC(C)(C)c1cc(O)c2c(c1)OC(C)(C)[C@H]1CC=C(CO)C[C@H]21", "note": "[dexanabinol, 1,1-dimethylheptyl-(3S,4S)-7-hydroxy-Δ^6-tetrahydrocannabinol]", "values": [{"measurement": "i.p. dose pharmacologically equivalent to rectal dose of 10 mg/kg", "setting": "[1]; i.p., CREMOPHOR EL:ethanol formulation", "result": 20, "unit": "mg/kg"}, {"measurement": "oral dose pharmacologically equivalent to rectal dose of 10 mg/kg", "setting": "[1]; oral", "result": 80, "unit": "mg/kg"}, {"measurement": "clinical disease severity compared to the vehicle", "setting": "[1]; rectal 10 mg/kg", "result": "reduced also the clinical disease severity"}, {"measurement": "reduction of gross pathology score compared to vehicle", "setting": "[1]; rectal (enema) 10 mg/kg, p<0.05", "result": "more than 50%"}, {"measurement": "AUC (ΔIOP×hours)", "setting": "[2]; 0.02% topical", "result": "6.4±2.5", "unit": "mmHg×Hour"}, {"measurement": "maximal ΔIOP", "setting": "[2]; 0.02% topical", "result": "1.8±0.7", "unit": "mmHg"}, {"measurement": "AUC (ΔIOP×hours)", "setting": "[2]; 0.05% topical", "result": "5.1±3.7", "unit": "mmHg×Hour"}, {"measurement": "maximal ΔIOP", "setting": "[2]; 0.05% topical", "result": "1.8±0.9", "unit": "mmHg"}, {"measurement": "maximal ΔIOP", "setting": "[2]; 0.1% topical", "result": "2.9±0.4", "unit": "mmHg"}, {"measurement": "AUC (ΔIOP×hours)", "setting": "[2]; 0.1% topical, ±SEM", "result": "14.6±2.2", "unit": "mmHg×Hour"}, {"measurement": "AUC (ΔIOP×hours)", "setting": "[2]; 0.2% topical", "result": "6.9±1.7", "unit": "mmHg×Hour"}, {"measurement": "maximal ΔIOP", "setting": "[2]; 0.2% topical", "result": "2.2±0.6", "unit": "mmHg"}, {"measurement": "IOP lowering effect compared to the vehicle and the saline", "setting": "[2]; all doses 0.02%, 0.05%, 0.1%, 0.2%, masked study", "result": "small, yet statistically significant"}, {"measurement": "IOP lowering effect over three days", "setting": "[2]; daily application for three days, n=8", "result": "sustained IOP lowering effect"}, {"measurement": "adverse effect in tetrad assay", "setting": "CB1 mediated activity", "result": "no adverse effect"}, {"measurement": "serious adverse reactions", "setting": "[3]", "result": "no serious adverse reactions were reported"}, {"measurement": "tolerability", "setting": "[4]; CREMOPHOR EL:ethanol formulation, single and/or multiple i.v. doses in rats, rabbits and monkeys", "result": "generally well tolerated"}, {"measurement": "psychomimetic side effect", "setting": "[4]; at dose tested, any of the animal species tested", "result": "no psychomimetic side effect"}]}]}
